From PubChem BioAssay AID1963858 (Molecular Pharmacology Branch, DTP, NCI, 2024)

Tested on: HOP-62 multicell spheroids with HUVEC/MSC, viability
Assay: Anticancer human tumor HOP-62 cell line growth inhibition [KRAS2];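 also: viability read after a week of compound exposure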;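 as to viability, T/C: 100% = DMSO vehicle-treated spheroids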
Conditions: for IC50: curve of first compound; for viability, T/C: stronger effect = lower value
In short: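 Combination screen of spheroid viability in tumor-cell co-cultures with endothelial (HUVEC) and mesenchymal stem cell stroma. Each agent was tested in half-log dilutions, topping at clinical Cmax or at 10 microM without a known Cmax.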

[1] = second compound 0.1 µM, first compound 0.0316 µM
[2] = second compound 0.1 µM, first compound 0.1 µM
[3] = second compound 0.1 µM, first compound 0.316 µM
[4] = second compound 0.1 µM, first compound 1 µM
[5] = second compound 0.1 µM, first compound 3.16 µM
[6] = second compound 0.316 µM, first compound 0.0316 µM
[7] = second compound 0.316 µM, first compound 0.1 µM
[8] = second compound 0.316 µM, first compound 0.316 µM
[9] = second compound 0.316 µM, first compound 1 µM
[10] = second compound 0.316 µM, first compound 3.16 µM
[11] = second compound 1 µM, first compound 0.0316 µM
[12] = second compound 1 µM, first compound 0.1 µM
[13] = second compound 1 µM, first compound 0.316 µM
[14] = second compound 1 µM, first compound 1 µM
[15] = second compound 1 µM, first compound 3.16 µM
[16] = second compound 3.16 µM, first compound 0.0316 µM
[17] = second compound 3.16 µM, first compound 0.1 µM
[18] = second compound 3.16 µM, first compound 0.316 µM
[19] = second compound 3.16 µM, first compound 1 µM
[20] = second compound 3.16 µM, first compound 3.16 µM
[21] = second compound 10 µM, first compound 0.0316 µM
[22] = second compound 10 µM, first compound 0.1 µM
[23] = second compound 10 µM, first compound 0.316 µM
[24] = second compound 10 µM, first compound 1 µM
[25] = second compound 10 µM, first compound 3.16 µM
[26] = second compound 0.1 µM, first compound 10 µM
[27] = second compound 0.316 µM, first compound 10 µM
[28] = second compound 1 µM, first compound 10 µM
[29] = second compound 3.16 µM, first compound 10 µM
[30] = second compound 10 µM, first compound 10 µM

SMILES | IC50 (second compound 0.1 µM) | IC50 (second compound 0.316 µM) | IC50 (second compound 1 µM) | IC50 (second compound 3.16 µM) | IC50 (second compound 10 µM) | viability, T/C [1] | viability, T/C [2] | viability, T/C [3] | viability, T/C [4] | viability, T/C [5] | viability, T/C [6] | viability, T/C [7] | viability, T/C [8] | viability, T/C [9] | viability, T/C [10] | viability, T/C [11] | viability, T/C [12] | viability, T/C [13] | viability, T/C [14] | viability, T/C [15] | further results
CC1COCCN1c1cc(-c2ccnn2C)c2ccnc(-c3ccn[nH]3)c2n1 (stereo not given) + COc1cc2nc(C)nc(NC(C)c3cc(N)cc(C(F)(F)F)c3)c2cc1OC1CCOC1 | < 10 nM | 68.6 nM | 54.2 nM | 22.8 nM | 10.9 nM | 6.78% | 7.26% | 6.53% | 8.4% | 10.7% | 83.5% | 33.9% | 16.5% | 13.4% | 14.4% | 65.8% | 31.4% | 19.6% | 12.5% | 11.2% | viability, T/C (second compound 0.1 µM, first compound 0.01 µM): 8.83%; viability, T/C (second compound 0.316 µM, first compound 0.01 µM): 125%; viability, T/C (second compound 1 µM, first compound 0.01 µM): 120%; viability, T/C (second compound 3.16 µM, first compound 0.01 µM): 77.4%; viability, T/C [16]: 38.2%; viability, T/C [17]: 22.9%; viability, T/C [18]: 13.9%; viability, T/C [19]: 9.69%; viability, T/C [20]: 10.8%; viability, T/C (second compound 10 µM, first compound 0.01 µM): 52.1%; viability, T/C [21]: 36%; viability, T/C [22]: 27.4%; viability, T/C [23]: 22.3%; viability, T/C [24]: 15.8%; viability, T/C [25]: 12.9%
CC1OCC2(CCN(c3cnc(Sc4ccnc(N)c4Cl)c(N)n3)CC2)C1N (stereo not given) + COc1cc2nc(C)nc(NC(C)c3cc(N)cc(C(F)(F)F)c3)c2cc1OC1CCOC1 | > 10000 nM | > 10000 nM | 1220 nM | 510 nM | 51.9 nM | 89.6% | 88.9% | 79.8% | 66% | 59.5% | 98.4% | 96.1% | 76.2% | 68.9% | 55.5% | 99.4% | 77.9% | 61.2% | 53.6% | 41.8% | viability, T/C [26]: 59.5%; viability, T/C [27]: 52.8%; viability, T/C [28]: 40.3%; viability, T/C [16]: 82%; viability, T/C [17]: 73.8%; viability, T/C [18]: 59.4%; viability, T/C [19]: 38.4%; viability, T/C [20]: 25.7%; viability, T/C [29]: 31.1%; viability, T/C [21]: 58%; viability, T/C [22]: 40.1%; viability, T/C [23]: 26.9%; viability, T/C [24]: 23.7%; viability, T/C [25]: 20.3%; viability, T/C [30]: 18.6%
CCNC(=O)CC1N=C(c2ccc(Cl)cc2)c2cc(OC)ccc2-n2c(C)nnc21 (stereo not given) + COc1cc2nc(C)nc(NC(C)c3cc(N)cc(C(F)(F)F)c3)c2cc1OC1CCOC1 | 271 nM | 189 nM | 193 nM | 60.8 nM | < 31.6 nM | 90.5% | 75.9% | 44.3% | 29.4% | 21.9% | 90.4% | 65% | 37.8% | 23.7% | 19% | 89.2% | 59.8% | 46.9% | 17.5% | 16.9% | viability, T/C [26]: 18.2%; viability, T/C [27]: 18.5%; viability, T/C [28]: 14.4%; viability, T/C [16]: 60.1%; viability, T/C [17]: 41.7%; viability, T/C [18]: 29.1%; viability, T/C [19]: 17.2%; viability, T/C [20]: 15.5%; viability, T/C [29]: 15.2%; viability, T/C [21]: 43%; viability, T/C [22]: 35.9%; viability, T/C [23]: 29.3%; viability, T/C [24]: 15.8%; viability, T/C [25]: 9.2%; viability, T/C [30]: 4.11%
Cn1nccc1Nc1nccc(-c2cc3c(s2)C(C)(C)N(CCN2CCOCC2)C3=O)n1 + COc1cc2nc(C)nc(NC(C)c3cc(N)cc(C(F)(F)F)c3)c2cc1OC1CCOC1 | 795 nM | 801 nM | 769 nM | 389 nM | 189 nM | 107% | 103% | 76.2% | 44.8% | 25.2% | 106% | 98.6% | 77.9% | 45% | 20.6% | 101% | 88.3% | 67.9% | 48% | 22.1% | viability, T/C [26]: 25.8%; viability, T/C [27]: 22.8%; viability, T/C [28]: 20.9%; viability, T/C [16]: 93.8%; viability, T/C [17]: 78.7%; viability, T/C [18]: 54.2%; viability, T/C [19]: 33.1%; viability, T/C [20]: 22%; viability, T/C [29]: 22.3%; viability, T/C [21]: 66.7%; viability, T/C [22]: 60.4%; viability, T/C [23]: 41.6%; viability, T/C [24]: 28.2%; viability, T/C [25]: 25.1%; viability, T/C [30]: 24%
